Test results: US20260193267A1, “Solid Forms of Naphthyridine Compounds” (AMGEN INC., priority 2023, published 2026)
Entries after “also recorded” stand apart in the source; their conditions may differ.

Experiments:
physchem = assay: physchem
Source text: Suitable nonlimiting examples of counterions for forming salts with Compound A include benzene sulfonic acid (BSA), toluene sulfonic acid (TSA), sulfuric acid, hydrochloric acid, malonic acid, naphthalene-2-sulfonic acid, methane sulfonic acid, oxalic acid, tartaric acid, ethane sulfonic acid, cyclamic acid, maleic acid, or phosphoric acid.

[1] = Stability under compression forces representative of tableting; assay type: physicochemical; settings: compression up to 200 MPa
[2] = Physical and chemical stability in excipient blends (ssNMR); assay type: physicochemical; settings: 40° C./75% RH, 25° C./60% RH open, 40° C./75% RH closed
[3] = Dynamic vapor sorption (DVS) moisture sorption; assay type: physicochemical
Procedure: DVS—Method 1: DVS was measured via a SMS (Surface Measurement Systems) DVS Resolution. The relative humidity at 25° C. was calibrated against the deliquescence point of LiCl, Mg(NO3)2 and KCl.
DVS—Method 2: Moisture sorption data was collected using a DVS vapor sorption analyzer. A sample size of approximately 10-20 mg was used in a glass or metal pan. Hygroscopicity was evaluated from 40 to 90 to 0 to 90 to 40% RH in increments of 5% RH or from 40 to 0 to 95 to 0 to 95% RH in increments of 10% RH. Data for adsorption and desorption cycles were collected. Equilibrium criteria were set at 0.002% weight change in 1 minute with a maximum equilibration time of 180 minutes.

[4] = Solubility of Form 1 in aqueous media; assay type: physicochemical; settings: aqueous buffer; aqueous media at pHs of 1-8

| Structure (SMILES) | pKa (physchem) | form change by DSC and XRPD after compression [1] | physical and chemical stability by ssNMR [2] | degradation related to the Maillard reaction ([2]; after 2 weeks) | hygroscopicity by DVS ([3]; 0% to 95% relative humidity at 25° C.) | change in form on DVS ([3]; 0-95% relative humidity at 25° C.) | solubility [4] |
| --- | --- | --- | --- | --- | --- | --- | --- |
| Nc1nc2cnc(C(=O)N3CCOC[C@@H]3c3ccc(C(F)(F)F)cc3)cc2c2c1COC2 [Compound A] | 4.27 | – | – | – | – | – | – |
| Nc1nc2cnc(C(=O)N3CCOC[C@@H]3c3ccc(C(F)(F)F)cc3)cc2c2c1COC2 [Form 1] | – | no form change | physically and chemically stable | no evidence of degradation related to the Maillard reaction | non-hygroscopic; also recorded: non-hygroscopicity | no observable change in form | > 10 µg/mL |
